Measured values as given in US6589747B2, “Method for identifying compounds that modulate the interaction of amyloid beta or its aggregates with a voltage gated sodium channel” (priority 1999, dated 2003).

Tests used:
[1] = test system: fast inward sodium channel (TTX-sensitive) of isolated rat hippocampal neurons; experiment: Voltage-clamp recording of fast inward sodium current (INa); format: cell-based
[2] = test system: fast inward sodium channels (TTX-sensitive) of rat hippocampal neurons; experiment: Aggregation time course versus impact on inward sodium current and other neuronal parameters; format: cell-based
[3] = test system: isolated adult rat cortical and hippocampal neurons; experiment: Current-clamp recording of resting membrane potential and action potentials of single neurons (suction pipette); format: cell-based
Text: (§1) For all studies as described herein, single neurons freshly dissociated from adult rats (Chad et al, In, Cellular Neurobiology, Ed. J. Chad and H. Wheal, Oxford University Press (1991)) were examined using the suction pipette method (Lee et al., J. Neurosc. Methods, 2; 51-78 (1980)) under current- or voltage-clamp, with use of an Axopatch 200 Amplifier (Axon Instruments, Foster City, Calif.). Amyloid β1-40 was obtained from Polypeptide Laboratories, Torrance, Calif., or from Bachem Biochemica, Heidelberg, Germany.
Shaken aggregation assays (i.e., as in Examples 1-4) were performed as described previously (e.g., Findeis et al., Biochemistry, 38, 6791-6800 (1999)). This aggregation performed prior to use of the aggregated amyloid for contacting cells was done in the same media as the cells were contained, i.e., Hank's Balanced Salt Solution. Aggregation of amyloid for kinetic studies (i.e., as in Example 5), was done in a buffer composed of 10 mM phosphate, 100 mM NaCl, pH 7.4. […] At given times, the turbidities of the reaction mixture were read by measuring light scattering at 405 nm in a Molecular Devices (Menlo Park, Calif.) Vmax Microplate Reader. […]
In current-clamp, the resting membrane potential and action potentials of single neurons were continuously monitored for at least 10-20 minutes until the neuronal activity became stable. […]

[4] = test system: calcium ion channel of isolated hippocampal neurons; experiment: Voltage-clamp recording of neuronal inward calcium current; format: cell-based, rat; settings: 50 μM amyloid β 1-40, about 70 minutes shake-induced aggregation
Text: as §1
In this experiment, the effect of amyloid β 1-40 on the calcium ion channel was studied using the methods described in Experiment 2 for the sodium channel.

[5] = test system: potassium ion channel of isolated neurons; experiment: Voltage-clamp recording of potassium currents; format: cell-based, rat
Text: as §1
In this experiment, the effect of amyloid β 1-40 on the potassium ion channel was studied using the methods described in Experiment 2 for the sodium channel.
In voltage-clamp, within the first 2-5 minutes, in some cells the peptide induced an outward holding current measuring about 10-50 pA, but this small current was enough to hyperpolarize the resting membrane potential from −50 mV to −90 mV. In other cells, the peptide instead caused a gradual depolarization to about −40 mV due to a slight inhibition of the outward holding current. In all cells, amyloid β 1-40 blocked the delayed outward potassium current by about 30-40% at all step potentials.

NC1=N[C@H](O)[C@H]2[C@H]3O[C@]4(O)O[C@@H]([C@@H](O)[C@@]2(N1)[C@@H]4O)[C@]3(O)CO [tetrodotoxin (TTX), tetrodotoxin]
sensitivity of fast inward sodium current to blocker [1]: sensitive

Monomers of amyloid β 1-40: Non-aggregated monomeric form of amyloid β 1-40
impact on the parameters assessed (resting potential, action potential, sodium, calcium, potassium channels) ([2]; monomeric form, before aggregation): did not show significant impact

amyloid β 1-40
effect on action potentials ([3]; 11.5 μM amyloid β 1-40 added to cortical and hippocampal neurons): abrogation of action potentials | time of peptide exposure until action potentials disappeared altogether in most neurons ([3]; 10-50 μM amyloid β 1-40 preaggregated for different times): 20 to 30 min | reversibility of effect on fast inward sodium current on wash out ([1]; 50 μM amyloid β 1-40, about 90 and 120 minutes shake-induced aggregation, hippocampal neuron): cannot wash out | block of fast inward sodium current ([1]; 10-50 μM amyloid β 1-40 aggregated for various times, in about 5-30 minutes, holding potential −50 to −80 mV): ≤ 90% | effect on neuronal inward calcium currents [4]: depress neuronal inward calcium currents | block of delayed outward potassium current ([5]; all cells, at all step potentials): 30-40% | resting membrane potential after hyperpolarization (from −50 mV) ([5]; cells in which an outward holding current was induced): −90 mV | membrane potential after gradual depolarization ([5]; other cells, slight inhibition of the outward holding current): about −40 mV | induced outward holding current ([5]; voltage-clamp, within the first 2-5 minutes, in some cells): 10-50 pA | time of shake-induced aggregation giving peak impact on sodium channel activity (% decrease in INa) ([2]; 50 μM amyloid β 1-40): 60 to 80 min | inhibition level of the fast inward sodium channels after saturation of peptide aggregation ([2]; after reaching saturation of aggregation, mean values of four experiments): > 50%

low molecular weight peptide aggregates of amyloid β 1-40 monomer: Low molecular weight aggregates (e.g. tetramer) of amyloid β 1-40
relative potency for inhibiting the fast inward sodium channels ([2]; compared with monomers or polymers): higher potency
